# Test results taken from PubChem BioAssay AID743506 (Broad Institute, 2014).
# Activity calls are given as the source filed them.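 How the source made its calls: active means compounds that block the bursicon-driven reporter signal with IC50 below 35000 nM; inactive means the rest.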
# Molecular target: Bursicon receptor (LGR2/rickets), Drosophila melanogaster
# Assay: inhibition of bursicon-stimulated LGR2 cAMP signaling – cell-based, HEK293, CRE-luciferase, beta-gal normalized, dry powder, set 3, dose response (AID 743506)
# Conditions: 4 h
row,Compound,IC50
1,C[C@H](CO)N1C[C@H](C)[C@H](CN(C)C(=O)Nc2ccccc2)OCCCC[C@H](C)Oc2ccc(NC(=O)C3CCCCC3)cc2C1=O,< 35 µM
2,COc1ccc(NC(=O)N(C)C[C@@H]2OCCCC[C@H](C)Oc3ccc(NC(=O)C4CCCCC4)cc3C(=O)N([C@H](C)CO)C[C@@H]2C)cc1,< 35 µM
3,C[C@H](CO)N1C[C@H](C)[C@H](CN(C)C(=O)Nc2ccc(F)cc2)OCCCC[C@H](C)Oc2ccc(NC(=O)C3CCCCC3)cc2C1=O,< 35 µM
4,C[C@H](CO)N1C[C@H](C)[C@H](CN(C)C(=O)Nc2ccc3c(c2)OCO3)OCCCC[C@H](C)Oc2ccc(NC(=O)C3CCCCC3)cc2C1=O,< 35 µM
5,C[C@@H]1CCCCO[C@H](CN(C)C(=O)Nc2ccc(F)cc2)[C@H](C)CN([C@@H](C)CO)C(=O)c2cc(NC(=O)C3CCCCC3)ccc2O1,> 35 µM (inactive)
